Experimental data reported in patent US20170224664A1, “POWDER ORAL SUSPENSION FORMULATIONS OF ANTIBACTERIAL AGENTS” (Cempra Pharmaceuticals, Inc., priority 2014, published 2017).
In brackets after ≈: the same amount, converted by molar mass.

Assays:
[1] = Stability of SOL in the presence of excipients; assay type: physicochemical
Excerpt: It has unexpectedly been discovered that compounds described herein, such as SOL, are unstable in the presence of high relative amounts of sucralose. In another embodiment, the weight/weight ratio of API, such as SOL to sucralose is greater than about 3, greater than about 4, greater than about 5, greater than about 6, greater than about 7, greater than about 8, greater than about 9, or greater than about 10. Illustratively, the POS and suspension formulations described herein include one of more souring agents. It has unexpectedly been discovered that compounds described herein, such as SOL, are unstable in the presence of high relative amounts of citric acid. In another embodiment, the weight/weight ratio of API, such as SOL to citric acid is greater than about 50, greater than about 60, greater than about 70, greater than about 80, or greater than about 90. In another embodiment, the POS and suspension formulations described herein are substantially free of, or free of citric acid.

[2] = Solubility of SOL at different pH; assay type: physicochemical
Excerpt: It has been discovered herein that the solubility of the compounds described herein generally decreases with increasing pH. […] It has also been discovered herein that at certain pH levels, a stable aqueous suspension of the compounds may be prepared. That suspension may also be prepared from a reconstitutable powder for oral suspension (POS). However, it has also been discovered that at certain limiting pH levels, a threshold amount of the compounds described herein are in solution and therefore such an oral suspension may have a bitter taste that compromises the efficacy thereof, such as due to poor patient compliance.

stability in the presence of citric acid ([1]; high relative amounts of citric acid): unstable | stability in the presence of sucralose ([1]; high relative amounts of sucralose): unstable | solubility ([2]; pH 5.7, aqueous buffer): 68000 µg/mL (≈ 80500 µM) | solubility ([2]; pH 6.2, aqueous buffer): 860 µg/mL (≈ 1020 µM) | solubility ([2]; pH 7.5, aqueous buffer): 70 µg/mL (≈ 82.8 µM)
SMILES: CC[C@H]1OC(=O)[C@@](C)(F)C(=O)[C@H](C)[C@@H](O[C@@H]2O[C@H](C)C[C@H](N(C)C)[C@H]2O)[C@](C)(OC)C[C@@H](C)C(=O)[C@H](C)[C@H]2N(CCCCn3cc(-c4cccc(N)c4)nn3)C(=O)O[C@]12C [SOL, solithromycin]
